# Source: ChEMBL document CHEMBL5465560, “Selectivity Literature for EUbOPEN Chemogenomic Library” (2024)
# Experiments:
# [1] = molecular target: T1, Histone-lysine N-methyltransferase EHMT1 (Homo sapiens) (UniProt Q9H9B1); test: Selectivity interaction (Methyltransferase screen (radiometric assays, panel of 8 PRMTs, 21 protein lysine methyltransferases, 3 DNA methyltransferases, and one RNA methyltransferase)) EUB0000272b EHMT1
# T1 sequence (whole entry): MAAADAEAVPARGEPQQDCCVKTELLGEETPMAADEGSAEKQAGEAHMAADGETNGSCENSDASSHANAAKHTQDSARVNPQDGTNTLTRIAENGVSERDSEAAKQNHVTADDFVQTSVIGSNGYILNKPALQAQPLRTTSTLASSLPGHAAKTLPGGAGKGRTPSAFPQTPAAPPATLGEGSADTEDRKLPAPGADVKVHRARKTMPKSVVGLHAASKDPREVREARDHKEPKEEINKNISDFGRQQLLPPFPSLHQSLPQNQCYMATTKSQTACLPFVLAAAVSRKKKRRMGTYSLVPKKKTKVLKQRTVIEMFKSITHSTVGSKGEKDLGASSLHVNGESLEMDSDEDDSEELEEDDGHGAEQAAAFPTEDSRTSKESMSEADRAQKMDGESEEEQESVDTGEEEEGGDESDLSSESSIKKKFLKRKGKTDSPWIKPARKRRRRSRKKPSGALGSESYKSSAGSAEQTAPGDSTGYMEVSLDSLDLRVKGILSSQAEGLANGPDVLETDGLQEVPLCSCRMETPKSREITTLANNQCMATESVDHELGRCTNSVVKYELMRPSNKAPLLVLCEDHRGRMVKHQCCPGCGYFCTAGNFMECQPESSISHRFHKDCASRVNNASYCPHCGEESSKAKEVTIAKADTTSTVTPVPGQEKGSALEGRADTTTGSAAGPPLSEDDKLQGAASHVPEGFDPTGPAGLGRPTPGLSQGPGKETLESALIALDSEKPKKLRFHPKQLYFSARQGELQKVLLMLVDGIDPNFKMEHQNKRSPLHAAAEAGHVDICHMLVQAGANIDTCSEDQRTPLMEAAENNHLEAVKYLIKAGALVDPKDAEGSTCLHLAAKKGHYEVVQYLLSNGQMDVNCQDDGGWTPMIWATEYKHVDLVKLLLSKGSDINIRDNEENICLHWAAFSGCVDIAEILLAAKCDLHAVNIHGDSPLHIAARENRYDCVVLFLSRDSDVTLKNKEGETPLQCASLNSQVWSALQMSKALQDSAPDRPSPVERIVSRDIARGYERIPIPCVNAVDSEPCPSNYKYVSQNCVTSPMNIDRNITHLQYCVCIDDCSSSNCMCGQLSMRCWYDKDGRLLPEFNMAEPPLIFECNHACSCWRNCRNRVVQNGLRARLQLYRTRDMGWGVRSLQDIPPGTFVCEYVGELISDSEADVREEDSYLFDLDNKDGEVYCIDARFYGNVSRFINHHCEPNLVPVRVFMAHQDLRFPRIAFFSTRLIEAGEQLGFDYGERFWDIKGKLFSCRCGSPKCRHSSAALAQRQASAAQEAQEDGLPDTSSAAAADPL
# [2] = molecular target: T2, cGMP-dependent protein kinase 1 (Homo sapiens) (UniProt Q13976); test: Selectivity interaction (KinomeScan (DiscoverX)) EUB0000655a PRKG1; conditions: at 10 µM
# T2 sequence (whole entry): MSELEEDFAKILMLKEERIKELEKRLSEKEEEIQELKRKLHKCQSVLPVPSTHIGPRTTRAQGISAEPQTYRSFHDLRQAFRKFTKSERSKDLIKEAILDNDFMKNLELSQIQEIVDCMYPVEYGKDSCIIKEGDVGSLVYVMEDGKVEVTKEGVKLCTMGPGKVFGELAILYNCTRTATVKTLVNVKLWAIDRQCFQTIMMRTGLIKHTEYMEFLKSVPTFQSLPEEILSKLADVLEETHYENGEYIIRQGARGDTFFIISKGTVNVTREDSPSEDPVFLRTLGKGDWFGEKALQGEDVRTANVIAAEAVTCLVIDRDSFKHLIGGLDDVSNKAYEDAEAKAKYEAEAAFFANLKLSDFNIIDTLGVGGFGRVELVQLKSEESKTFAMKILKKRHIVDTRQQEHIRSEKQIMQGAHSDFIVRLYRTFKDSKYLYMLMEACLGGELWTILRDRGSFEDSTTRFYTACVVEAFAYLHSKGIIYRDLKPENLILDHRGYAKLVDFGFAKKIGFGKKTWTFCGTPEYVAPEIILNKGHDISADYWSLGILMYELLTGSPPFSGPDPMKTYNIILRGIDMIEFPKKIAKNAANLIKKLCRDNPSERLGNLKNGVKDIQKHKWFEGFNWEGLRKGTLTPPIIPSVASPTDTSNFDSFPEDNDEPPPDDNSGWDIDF
# [3] = molecular target: Ephrin type-A receptor 4 (Homo sapiens, UniProt P54764); test: Selectivity interaction (KinomeScan (DiscoverX)) EUB0000666a EPHA4; conditions: at 10 µM
# Sequence of Ephrin type-A receptor 4 (P54764 whole entry): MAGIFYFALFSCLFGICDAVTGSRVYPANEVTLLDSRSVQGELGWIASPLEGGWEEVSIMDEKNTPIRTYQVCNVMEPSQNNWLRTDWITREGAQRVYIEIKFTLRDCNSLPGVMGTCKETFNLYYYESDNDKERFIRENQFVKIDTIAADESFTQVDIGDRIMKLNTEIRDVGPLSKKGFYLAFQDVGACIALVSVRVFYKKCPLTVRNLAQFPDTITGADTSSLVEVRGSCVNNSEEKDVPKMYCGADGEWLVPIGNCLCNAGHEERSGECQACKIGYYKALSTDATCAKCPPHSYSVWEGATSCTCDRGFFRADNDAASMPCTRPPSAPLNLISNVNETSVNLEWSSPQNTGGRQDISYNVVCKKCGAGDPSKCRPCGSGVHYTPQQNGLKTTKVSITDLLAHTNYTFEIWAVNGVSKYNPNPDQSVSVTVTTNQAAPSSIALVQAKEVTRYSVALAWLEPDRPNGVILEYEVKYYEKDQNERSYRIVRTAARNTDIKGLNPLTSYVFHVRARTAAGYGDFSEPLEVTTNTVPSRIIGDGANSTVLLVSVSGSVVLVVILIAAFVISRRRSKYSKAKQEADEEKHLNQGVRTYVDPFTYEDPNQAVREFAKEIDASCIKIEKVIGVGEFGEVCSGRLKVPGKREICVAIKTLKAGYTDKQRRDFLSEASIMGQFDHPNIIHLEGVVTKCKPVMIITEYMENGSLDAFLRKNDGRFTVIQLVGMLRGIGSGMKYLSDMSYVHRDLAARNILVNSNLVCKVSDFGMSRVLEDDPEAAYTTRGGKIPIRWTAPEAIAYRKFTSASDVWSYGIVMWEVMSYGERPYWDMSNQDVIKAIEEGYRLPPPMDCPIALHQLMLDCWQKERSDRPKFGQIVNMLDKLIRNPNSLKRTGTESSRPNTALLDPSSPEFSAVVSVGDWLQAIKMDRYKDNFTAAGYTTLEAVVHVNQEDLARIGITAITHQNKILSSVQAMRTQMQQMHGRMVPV
# [4] = test system: Platelet-derived growth factor receptor alpha (Homo sapiens), P16234 [D842V]; test: (§1) Selectivity interaction (SelectScreen profiling (Invitrogen)) EUB0000607a PDGFRA; conditions: at 2 µM
# Sequence of Platelet-derived growth factor receptor alpha (Homo sapiens), P16234 [D842V] (P16234 whole entry D842V): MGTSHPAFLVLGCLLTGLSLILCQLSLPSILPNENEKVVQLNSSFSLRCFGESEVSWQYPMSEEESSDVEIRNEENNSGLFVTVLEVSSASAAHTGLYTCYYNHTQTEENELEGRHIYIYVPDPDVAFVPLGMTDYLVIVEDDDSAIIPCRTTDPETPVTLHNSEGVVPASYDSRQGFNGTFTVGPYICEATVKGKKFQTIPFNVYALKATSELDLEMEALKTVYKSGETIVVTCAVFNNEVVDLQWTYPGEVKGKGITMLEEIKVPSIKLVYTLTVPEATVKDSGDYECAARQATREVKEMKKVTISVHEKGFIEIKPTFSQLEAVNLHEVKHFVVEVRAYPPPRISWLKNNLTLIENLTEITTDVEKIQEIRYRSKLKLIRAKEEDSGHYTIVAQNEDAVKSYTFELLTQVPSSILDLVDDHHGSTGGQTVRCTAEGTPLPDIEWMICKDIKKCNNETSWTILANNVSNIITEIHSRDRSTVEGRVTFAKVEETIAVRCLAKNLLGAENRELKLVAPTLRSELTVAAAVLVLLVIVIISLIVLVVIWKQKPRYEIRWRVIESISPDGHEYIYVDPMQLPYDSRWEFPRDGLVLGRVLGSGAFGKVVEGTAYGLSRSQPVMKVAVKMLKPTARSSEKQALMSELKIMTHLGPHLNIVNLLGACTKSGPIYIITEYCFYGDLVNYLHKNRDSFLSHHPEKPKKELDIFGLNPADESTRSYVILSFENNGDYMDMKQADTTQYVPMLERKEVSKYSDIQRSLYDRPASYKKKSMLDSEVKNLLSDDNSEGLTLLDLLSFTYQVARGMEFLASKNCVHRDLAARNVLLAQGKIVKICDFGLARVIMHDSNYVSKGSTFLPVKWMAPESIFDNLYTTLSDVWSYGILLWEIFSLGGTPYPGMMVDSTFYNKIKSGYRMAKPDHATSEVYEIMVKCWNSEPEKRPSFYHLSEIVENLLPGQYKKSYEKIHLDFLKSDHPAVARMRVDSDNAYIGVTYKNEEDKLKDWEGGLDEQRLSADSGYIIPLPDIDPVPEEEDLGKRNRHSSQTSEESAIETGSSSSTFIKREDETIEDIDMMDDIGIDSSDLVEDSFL
# [5] = molecular target: Platelet-derived growth factor receptor alpha (Homo sapiens, UniProt P16234); test: as §1; conditions: at 2 µM
# Sequence of Platelet-derived growth factor receptor alpha (P16234 whole entry): as the sequence (P16234 whole entry D842V) above, with V842D counted along it
# [6] = test system: Platelet-derived growth factor receptor alpha (Homo sapiens), P16234 [V561D]; test: as §1; conditions: at 2 µM
# Sequence of Platelet-derived growth factor receptor alpha (Homo sapiens), P16234 [V561D] (P16234 whole entry V561D): as the sequence (P16234 whole entry D842V) above, with V561D, V842D counted along it
# [7] = test system: Platelet-derived growth factor receptor alpha (Homo sapiens), P16234 [T674I]; test: as §1; conditions: at 2 µM
# Sequence of Platelet-derived growth factor receptor alpha (Homo sapiens), P16234 [T674I] (P16234 whole entry T674I): as the sequence (P16234 whole entry D842V) above, with T674I, V842D counted along it
smiles,measurement,setting,value
Cc1cc(C)cc([C@H]2c3cc(C)ccc3NC(=O)CN2C(=O)c2ccc(Br)s2)c1,% of activity,[1]; at 1 µM,98%
same,% of activity,[1]; at 10 µM,101%
CN(C)CCOc1ccc(-c2nc(-c3ccncc3)c(-c3ccc4c(c3)CC/C4=N\O)[nH]2)cc1,% of control,[2],89%
O=C(NOC[C@H](O)CO)c1ccc(F)c(F)c1Nc1ccc(I)cc1F,% of control,[3],100%
CNC(=O)Nc1ccc(-c2nc(N3CC4CCC(C3)O4)c3cnn(C4CCC5(CC4)OCCO5)c3n2)cc1,% of inhibition,[4],4%
same,% of inhibition,[5],0%
same,% of inhibition,[6],3%
same,% of inhibition,[7],12%
